These results are taken from ChEMBL document CHEMBL1201862, “PubChem BioAssay data set” (2004).

Holding throughout (experiment): NCI anticancer screen, dose series, 48 h
The test system of assay [1] is LOX IMVI.
The test system of assay [2] is UO-31.
Assay [3] concerns A498.
Assay [4] relates to HCT-15.
The subject of assay [5] is Hs-578T.
The subject of assay [6] is IGROV-1.
The subject of assay [7] is SW-620.
The test system of assay [8] is A549.
In assay [9] the test system is OVCAR-8.
Assay [10] has as its system UACC-62.
Assay [11] relates to RPMI-8226.
In assay [12] the test system is T47D.
The subject of assay [13] is SK-OV-3.
Assay [14] has as its system SF-268.
The subject of assay [15] is RXF 393.
Assay [16] deals with MDA-MB-231.
The test system of assay [17] is OVCAR-4.
The test system of assay [18] is CCRF-CEM.

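Each compound was tested at five concentrations against cells in 96-well plates for 48 hours. The concentration for 50% growth inhibition is given as GI50.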 Calls of active or inactive are those of the source. Rule as the data show it: active = GI50 up to about 1.1 µM and inactive = higher.

`NCC1OC(n2cnc3c(=O)[nH]c(N)nc32)C(O)C1O` (stereo not drawn): the GI50 in assay [1] was 69.8 µM (inactive); in assay [2], > 100 µM (inactive); in assay [3], > 100 µM (inactive); in [4], > 100 µM; in [5] it was > 100 µM (inactive); in assay [6] it was > 100 µM (inactive). Besides, the GI50 is > 100 µM (inactive) in assay [7]; > 100 µM (inactive) in assay [8]; > 100 µM (inactive) in assay [9]; > 100 µM (inactive) in assay [10]; 2.13 µM (inactive) in [11]; 97.1 µM (inactive) in assay [12]. Moreover, the GI50 was > 100 µM (inactive) in assay [13]; > 100 µM (inactive) in [14]; > 100 µM (inactive) in [15]; > 100 µM (inactive) in assay [16]; > 100 µM (inactive) in [17]; > 82.8 µM (inactive) in assay [18].
Turning to `CCN(CCCl)c1cc(CN(C)C)cc(NC(=O)C23CCC(C(=O)Nc4cc(CN(C)C)cc(N(CC)CCCl)c4)(CC2)CC3)c1`, the GI50 in assay [1] is 0.152 µM (active); in [2] it was 17.1 µM (inactive); in [3], 6.44 µM (inactive); in assay [4] it was 13.4 µM; in [5] it was 0.46 µM (active); in [6], 1.44 µM (inactive). Also, the GI50 is 0.105 µM (active) in [7]; 1.03 µM (active) in [8]; 1.11 µM (active) in [9]; 1.14 µM (inactive) in [10]; 1.35 µM (inactive) in assay [11]; 3.03 µM (inactive) in assay [12]. Also, the GI50 in assay [13] is 0.372 µM (active); in assay [14], 0.23 µM (active); in assay [15], 1.37 µM (inactive); in assay [16] it was 12.8 µM (inactive); in [17], 1.4 µM (inactive); in assay [18], < 0.01 µM (active).
Turning to `COc1ccc(OC)c(/N=C/c2cc(OC)c(OC)c(OC)c2)c1`, the GI50 in [1] is > 100 µM (inactive); in assay [2] it was > 100 µM (inactive); in assay [3] it was > 100 µM (inactive); in assay [4], > 92.7 µM; in assay [5], > 100 µM (inactive); in assay [6], > 82.8 µM (inactive). In addition, the GI50 was > 91.2 µM (inactive) in [7]; > 100 µM (inactive) in [8]; > 100 µM (inactive) in assay [9]; > 100 µM (inactive) in [10]; > 44.1 µM (inactive) in assay [11]; > 100 µM (inactive) in assay [12]. Also, the GI50 in [13] was > 77.8 µM (inactive); in assay [14], > 100 µM (inactive); in [15] it was > 100 µM (inactive); in assay [16], > 100 µM (inactive); in assay [17] it was > 85.1 µM (inactive); in [18], 22.9 µM (inactive).
On to `COC(=O)CC1C2(C)C3=C(C)C(c4ccoc4)CC3OC2C2OC(=O)C3(C)C=CC(=O)C1(C)C23` (stereo not drawn), for which the GI50 in [1] was 0.986 µM (active); in [2] it was 1.19 µM (inactive); in assay [3], 1.94 µM (inactive); in assay [4], 0.67 µM; in assay [5], 3.5 µM (inactive); in assay [6], 0.953 µM (active). Besides, the GI50 in assay [7] is 1.33 µM (inactive); in assay [8], 2.83 µM (inactive); in [9], 1.02 µM (active); in [10], 1.46 µM (inactive); in [11], 0.34 µM (active); in assay [12], 1.38 µM (inactive). The GI50 is 4.11 µM (inactive) in assay [13]; 2.07 µM (inactive) in assay [14]; 1.3 µM (inactive) in assay [15]; 1.22 µM (inactive) in [16]; 2.25 µM (inactive) in assay [17]; 0.317 µM (active) in [18].
Consider `COC(=O)CNC(=O)/C=C/[C@H](O[Si](C)(C)C(C)(C)C)[C@H](/C=C/C(=O)NCC(=O)OC)O[Si](C)(C)C(C)(C)C`, for which the GI50 is > 25 µM (inactive) in assay [1]; > 25 µM (inactive) in [2]; > 25 µM (inactive) in assay [3]; > 25 µM in [4]; > 25 µM (inactive) in assay [5]; > 25 µM (inactive) in assay [6]. Further, the GI50 in assay [7], in [8], in assay [9], in assay [10], in [11] and in [12] was > 25 µM (inactive) in each case. The GI50 in [13], in [14], in assay [15], in assay [16], in assay [17] and in assay [18] was > 25 µM (inactive) throughout.
For `O=C1c2c(ccc3c2CCCC3)CC12Cc1ccc3c(c1C2=O)CCCC3`, the GI50 in assay [1] was > 100 µM (inactive); in assay [2], > 100 µM (inactive); in [3], 89.1 µM (inactive); in assay [4], > 100 µM; in assay [5], > 100 µM (inactive); in [6], > 100 µM (inactive). In addition, the GI50 in [7], in [8], in assay [9], in assay [11], in assay [12] and in assay [13] was > 100 µM (inactive) throughout. In addition, the GI50 in assay [14], in assay [15], in assay [16], in [17] and in assay [18] was > 100 µM (inactive) throughout.
Turning to `C=C(CO)[C@H]1Oc2ccc(C(C)=O)cc2[C@@H]1O`, the GI50 in assay [1] is > 100 µM (inactive); in assay [2] it was > 100 µM (inactive); in [3], > 100 µM (inactive); in assay [4] it was 80.9 µM; in assay [5], 77.8 µM (inactive); in assay [6], > 100 µM (inactive). The GI50 in assay [7], in assay [8], in assay [9], in [10], in [11] and in assay [12] was > 100 µM (inactive) each time. Besides, the GI50 in assay [13], in assay [14], in assay [15], in [16], in assay [17] and in assay [18] was > 100 µM (inactive) in each case.
Consider `CC(=O)c1csc2c1C(=O)c1ccccc1C2=O`, for which the GI50 was 2.36 µM (inactive) in assay [1]; 2.64 µM (inactive) in assay [2]; 46.7 µM (inactive) in assay [3]; 4.55 µM in assay [4]; 2.43 µM (inactive) in assay [5]; 2.4 µM (inactive) in [6]. Moreover, the GI50 in assay [7] is 2.2 µM (inactive); in [8], 1.92 µM (inactive); in assay [9], 2.51 µM (inactive); in [10], 1.93 µM (inactive); in assay [11] it was 5.65 µM (inactive); in assay [12] it was 21.7 µM (inactive). The GI50 in [13] was 38.1 µM (inactive); in assay [14], 2.78 µM (inactive); in assay [15], 10.2 µM (inactive); in [16], 6.76 µM (inactive); in [17] it was 6.04 µM (inactive); in assay [18], 1.56 µM (inactive).
